pEC50: −log10 of the molar value.
Experiments:
[1] = biological target: T1, human TGR5 (h-TGR5) (Homo sapiens, UniProt Q8TDU6); assay: TGR5/CRE-Luciferiase Assay (HEK 293 hTGR5/CRE-Luc cells); assay type: cell-based; details: h-TGR5 CRE-Luc EC50, Table 1; read-out: CRE-Luc (EC50)
T1 construct: expressed in transfected cells
T1 sequence (Q8TDU6 1-330): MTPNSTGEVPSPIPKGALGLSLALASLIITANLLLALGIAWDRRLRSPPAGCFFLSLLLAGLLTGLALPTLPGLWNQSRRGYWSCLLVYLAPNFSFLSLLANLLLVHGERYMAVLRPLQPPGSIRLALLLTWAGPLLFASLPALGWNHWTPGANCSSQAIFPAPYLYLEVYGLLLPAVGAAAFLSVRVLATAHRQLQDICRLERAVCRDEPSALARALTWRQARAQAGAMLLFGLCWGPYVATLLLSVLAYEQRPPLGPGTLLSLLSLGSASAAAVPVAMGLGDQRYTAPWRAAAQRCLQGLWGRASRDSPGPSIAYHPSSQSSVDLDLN
In short: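 HEK293 cells stably carrying hTGR5 and a CRE-luciferase reporter were exposed to serially diluted compounds (diluted in DMEM with 5% DMSO) for 6 h. Cells were then lysed in luciferase buffer, luminescence was read, and EC50 values were derived from dose-response curves.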

[2] = biological target: T2, h-TGR5 (Homo sapiens, UniProt Q8TDU6); assay: TGR5 cAMP Assay using Cisbio cAMP Dynamic2 htrf kit (hTGR5CRE-luc HEK 293 cells); assay type: cell-based; details: h-TGR5 cAMP EC50, Table 1; read-out: cAMP (EC50)
T2 construct: expressed in transfected cells
T2 sequence (Q8TDU6 1-330): T1 sequence (Q8TDU6 1-330)
In short: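 […], 4000 hTGR5CRE-luc HEK 293 cells per well, with 0.5 mM IBMX and d2-cAMP, were incubated 30 min at room temperature with compounds in 8-point half-log series, in quadruplicate.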

| Structure (SMILES) | pEC50 [1] | pEC50 [2] |
| --- | --- | --- |
| CC(C)(c1cccc(S(C)(=O)=O)c1)c1cnc(SCc2c(F)cccc2Cl)n1-c1ccc(F)cc1 [2-{[(2-chloro-6-fluorophenyl)methyl]thio}-1-(4-fluorophenyl)-5-{1-methyl-1-[3-(methylsulfonyl)phenyl]ethyl}-1H-imidazole] | 6.00 to 7.00 | > 7.00 |
| COc1ccc(C(C)(C)c2cnc(SCc3c(F)cccc3Cl)n2-c2ccc(F)cc2)cc1 [2-{[(2-chloro-6-fluorophenyl)methyl]thio}-1-(4-fluorophenyl)-5-{1-methyl-1-[4-(methyloxy)phenyl]ethyl}-1H-imidazole] | > 7.00 | 6.00 to 7.00 |
| CC(C)(c1ccc(Cl)c(Cl)c1)c1cnc(SCc2c(F)cccc2Cl)n1-c1ccc(F)cc1F [2-{[(2-chloro-6-fluorophenyl)methyl]thio}-5-[1-(3,4-dichlorophenyl)-1-methylethyl]-1-(2,4-difluorophenyl)-1H-imidazole] | 6.00 to 7.00 | 6.00 to 7.00 |
| CC(C)(c1ccc(Cl)c(Cl)c1)c1cnc(SCc2c(F)cccc2Cl)n1-c1ccc(F)c(F)c1 [2-{[(2-chloro-6-fluorophenyl)methyl]thio}-5-[1-(3,4-dichlorophenyl)-1-methylethyl]-1-(3,4-difluorophenyl)-1H-imidazole] | > 7.00 | 6.00 to 7.00 |
| CC(C)(c1ccc(Cl)c(Cl)c1)c1cnc(SCc2c(F)cccc2Cl)n1-c1ccc(F)cc1 [2-{[(2-chloro-6-fluorophenyl)methyl]thio}-5-[1-(3,4-dichlorophenyl)-1-methylethyl]-1-(4-fluorophenyl)-1H-imidazole] | > 7.00 | 6.00 to 7.00 |
| COc1cc(-n2c(C(C)(C)c3ccc(Cl)c(Cl)c3)cnc2SCc2c(F)cccc2Cl)ccc1F [2-{[(2-chloro-6-fluorophenyl)methyl]thio}-5-[1-(3,4-dichlorophenyl)-1-methylethyl]-1-[4-fluoro-3-(methyloxy)phenyl]-1H-imidazole] | > 7.00 | > 7.00 |
| COc1c(Cl)cc(C(C)(C)c2cnc(SCc3c(F)cccc3Cl)n2-c2ccc(F)cc2)cc1Cl [2-{[(2-chloro-6-fluorophenyl)methyl]thio}-5-{1-[3,5-dichloro-4-(methyloxy)phenyl]-1-methylethyl}-1-(4-fluorophenyl)-1H-imidazole] | > 7.00 | > 7.00 |
| COc1ccc(C(C)(C)c2cnc(SCc3c(F)cccc3Cl)n2-c2ccc(F)cc2)cc1Cl [2-{[(2-chloro-6-fluorophenyl)methyl]thio}-5-{1-[3-chloro-4-(methyloxy)phenyl]-1-methylethyl}-1-(4-fluorophenyl)-1H-imidazole] | > 7.00 | > 7.00 |
| COc1cc(C(C)(C)c2cnc(SCc3c(F)cccc3Cl)n2-c2ccc(F)cc2)ccc1Cl [2-{[(2-chloro-6-fluorophenyl)methyl]thio}-5-{1-[4-chloro-3-(methyloxy)phenyl]-1-methylethyl}-1-(4-fluorophenyl)-1H-imidazole] | > 7.00 | > 7.00 |
| COc1cc(C(C)(C)c2c(C)nc(SCc3c(F)cccc3Cl)n2-c2ccc(F)cc2)ccc1Cl [2-{[(2-chloro-6-fluorophenyl)methyl]thio}-5-{1-[4-chloro-3-(methyloxy)phenyl]-1-methylethyl}-1-(4-fluorophenyl)-4-methyl-1H-imidazole] | 6.00 to 7.00 | 6.00 to 7.00 |
| COc1cc(-n2c(C(C)(C)c3ccc(S(N)(=O)=O)c(Cl)c3)cnc2SCc2c(F)cc(C(=O)NCCS(=O)(=O)O)cc2F)ccc1F [2-{[(4-{[(5-{1-[4-(aminosulfonyl)-3-chlorophenyl]-1-methylethyl}-1-[4-fluoro-3-(methyloxy)phenyl]-1H-imidazol-2-yl)thio]methyl}-3,5-difluorophenyl)carbonyl]amino}ethanesulfonic acid] | > 7.00 | > 7.00 |
| COc1cc(-n2c(C(C)(C)c3ccc(S(N)(=O)=O)c(Cl)c3)cnc2SCc2ccc(C(=O)NCCS(=O)(=O)O)cc2F)ccc1F [2-{[(4-{[(5-{1-[4-(aminosulfonyl)-3-chlorophenyl]-1-methylethyl}-1-[4-fluoro-3-(methyloxy)phenyl]-1H-imidazol-2-yl)thio]methyl}-3-fluorophenyl)carbonyl]amino}ethanesulfonic acid] | > 7.00 | > 7.00 |
| CC(C)(c1ccc2ccccc2c1)c1cnc(SCc2c(F)cc(C(=O)O)cc2F)n1-c1ccc(F)cc1 [3,5-difluoro-4-({[1-(4-fluorophenyl)-5-(1-methyl-1-naphthalen-2-ylethyl)-1H-imidazol-2-yl]thio}methyl)benzoic acid] | 6.00 to 7.00 | 6.00 to 7.00 |
| CC(C)(c1ccc(S(C)(=O)=O)cc1)c1cnc(SCc2c(F)cc(C(=O)O)cc2F)n1-c1ccc(F)cc1 [3,5-difluoro-4-({[1-(4-fluorophenyl)-5-{1-methyl-1-[4-(methylsulfonyl)phenyl]ethyl}-1H-imidazol-2-yl]thio}methyl)benzoic acid] | > 7.00 | > 7.00 |
| COc1cc(-n2c(C(C)(C)c3cccc(S(C)(=O)=O)c3)cnc2SCc2c(F)cc(C(=O)O)cc2F)ccc1F [3,5-difluoro-4-{[(1-[4-fluoro-3-(methyloxy)phenyl]-5-{1-methyl-1-[3-(methylsulfonyl)phenyl]ethyl}-1H-imidazol-2-yl)thio]methyl}benzoic acid] | 6.00 to 7.00 | 6.00 to 7.00 |
| COc1cc(-n2c(C(C)(C)c3ccc(S(C)(=O)=O)cc3)cnc2SCc2c(F)cc(C(=O)O)cc2F)ccc1F [3,5-difluoro-4-{[(1-[4-fluoro-3-(methyloxy)phenyl]-5-{1-methyl-1-[4-(methylsulfonyl)phenyl]ethyl}-1H-imidazol-2-yl)thio]methyl}benzoic acid] | 6.00 to 7.00 | > 7.00 |
| CC(C)(c1ccc(Cl)c(Cl)c1)c1cnc(SCc2ccc(F)cc2Cl)n1-c1cccnc1 [3-(2-{[(2-chloro-4-fluorophenyl)methyl]thio}-5-[1-(3,4-dichlorophenyl)-1-methylethyl]-1H-imidazol-1-yl)pyridine] | 6.00 to 7.00 | 5.00 to 6.00 |
| COc1cc(C(C)(C)c2cnc(SCc3c(F)cccc3Cl)n2-c2cccnc2)ccc1Cl [3-(2-{[(2-chloro-6-fluorophenyl)methyl]thio}-5-{1-[4-chloro-3-(methyloxy)phenyl]-1-methylethyl}-1H-imidazol-1-yl)pyridine] | 6.00 to 7.00 | 6.00 to 7.00 |
| COc1cc(C(C)(C)c2cnc(SCc3c(F)ccc(S(N)(=O)=O)c3F)n2-c2ccc(F)cc2)ccc1Cl [3-({[5-{1-[4-chloro-3-(methyloxy)phenyl]-1-methylethyl}-1-(4-fluorophenyl)-1H-imidazol-2-yl]thio}methyl)-2,4-difluorobenzenesulfonamide] | > 7.00 | > 7.00 |
| COc1cc(C(C)(C)c2cnc(SCc3c(F)cc(-c4noc(=O)[nH]4)cc3F)n2-c2ccc(F)cc2)ccc1Cl [3-[4-({[5-{1-[4-chloro-3-(methyloxy)phenyl]-1-methylethyl}-1-(4-fluorophenyl)-1H-imidazol-2-yl]thio}methyl)-3,5-difluorophenyl]-1,2,4-oxadiazol-5(4H)-one] | > 7.00 | > 7.00 |
| CC(C)(c1ccc(Cl)c(Cl)c1)c1cnc(SCC2CCCN(c3nnn[nH]3)C2)n1-c1ccc(F)cc1 (centres unmarked) [3-[({5-[1-(3,4-dichlorophenyl)-1-methylethyl]-1-(4-fluorophenyl)-1H-imidazol-2-yl}thio)methyl]-1-(1H-tetrazol-5-yl)piperidine] | 5.00 to 6.00 | 5.00 to 6.00 |
| CC(C)(c1ccc(Cl)c(Cl)c1)c1cnc(CCc2ccc(S(N)(=O)=O)cc2Cl)n1-c1ccc(F)cc1 [3-chloro-4-(2-{5-[1-(3,4-dichlorophenyl)-1-methylethyl]-1-(4-fluorophenyl)-1H-imidazol-2-yl}ethyl)benzenesulfonamide] | 6.00 to 7.00 | 5.00 to 6.00 |
| COc1cc(C(C)(C)c2cnc(SCc3ccc(S(=O)(=O)NC(=O)NN4CCCC4)cc3Cl)n2-c2ccc(F)c(Cl)c2)ccc1Cl [3-chloro-4-({[1-(3-chloro-4-fluorophenyl)-5-{1-[4-chloro-3-(methyloxy)phenyl]-1-methylethyl}-1H-imidazol-2-yl]thio}methyl)-N-[(pyrrolidine-1-ylamino)carbonyl]benzenesulfonamide] | > 7.00 | 6.00 to 7.00 |
| CC(C)(c1ccc(Cl)c(OCCCN2CCOCC2)c1)c1cnc(SCc2c(F)cc(C(=O)O)cc2Cl)n1-c1ccc(F)cc1 [3-chloro-4-({[5-(1-{4-chloro-3-[(3-morpholin-4-ylpropyl)oxy]phenyl}-1-methylethyl)-1-(4-fluorophenyl)-1H-imidazol-2-yl]thio}methyl)-5-fluorobenzoic acid] | 6.00 to 7.00 | 6.00 to 7.00 |
| CC(C)NC(=O)NS(=O)(=O)c1ccc(CSc2ncc(C(C)(C)c3ccc(F)c(C(F)F)c3)n2-c2ccc(F)cc2)c(Cl)c1 [3-chloro-4-({[5-{1-[3-(difluoromethyl)-4-fluorophenyl]-1-methylethyl}-1-(4-fluorophenyl)-1H-imidazol-2-yl]thio}methyl)-N-{[(1-methylethyl)amino]carbonyl} benzenesulfonamide] | 6.00 to 7.00 | 6.00 to 7.00 |
